Test results published in patent publication US20240279218A1 (Hoffmann-La Roche Inc., priority 2016, published 2024).
Read-outs that look alike come from different tables or passages of the source.

Key:
h-GABA-A α5β3γ2 [1] = molecular target: T1, h-GABA-A α5β3γ2 (Homo sapiens (Human), UniProt P18507+P31644); assay: Two-electrode voltage clamp electrophysiology in Xenopus oocytes expressing GABAA receptors, modulation of GABA EC20 current; assay type: cell-based
In short: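 Values are % modulation of an EC20 GABA response, derived point by point from the ratio of compound-exposed versus control current traces (extremum taken, 100×(fold−1)). Recordings used oocytes injected with human α5, β3, γ2 mRNA, clamped at −80 mV at room temperature, at least 3 oocytes each.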

h-GABA-A α5β3γ2 [2] = molecular target: T1, h-GABA-A α5β3γ2; assay: [3H]flumazenil competition binding assay, membranes of HEK293 cells expressing human GABAA receptors
In short: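 Membranes were prepared from HEK293 cells with transient human α5β3γ2 expression and assayed in Krebs-tris, pH 7.5. Bound radioactivity measured on filters by liquid scintillation.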

[3] = % modulation of GABA EC20 = 100*(Fold increase−1), Xenopus oocytes
[4] = Xenopus oocytes, GABA EC20, test compound at approx. 30 fold its Ki
[5] = displacement of [3H]flumazenil 0.5 nM, HEK293 cells expressing human receptors, mean of two determinations, read-out: Ki h-GABA-A α5β3γ2

| Structure (SMILES) | Efficacy (GABA) % (h-GABA-A α5β3γ2 [1]; [3]) [%] | Fold increase h-GABA-A α5β3γ2 oocyte (h-GABA-A α5β3γ2 [1]; [4]) | Ki (h-GABA-A α5β3γ2 [2]; [5]) [nM] | Efficacy (GABA) % (h-GABA-A α5β3γ2 [1]; reference compounds, % modulation of GABA EC20) [%] | Fold increase h-GABA-A α5β3γ2 oocyte (h-GABA-A α5β3γ2 [1]; reference compounds, GABAA α5β3γ2 overexpressing oocytes, GABA EC20) | Ki (h-GABA-A α5β3γ2 [2]; reference compounds, GABAA receptor α5β3γ2, read-out: Ki α5-human) [nM] |
| --- | --- | --- | --- | --- | --- | --- |
| Cc1ccc(-c2noc(C)c2COc2ccc(C(=O)NC3(C(F)(F)F)CC3)nn2)cn1 [Example 59, 6-((5-methyl-3-(6-methylpyridin-3-yl)isoxazol-4-yl)methoxy)-N-(1-(trifluoromethyl)cyclopropyl)pyridazine-3-carboxamide] | 93 | 1.93 | 10.4 | – | – | – |
| Cc1ccc(-c2noc(C)c2COc2ccc(C(=O)N[C@H]3CCCC[C@@H]3O)cn2)cn1 [Example 135, N-((1S,2S)-2-hydroxycyclohexyl)-6-((5-methyl-3-(6-methylpyridin-3-yl)isoxazol-4-yl)methoxy)pyridine-3-carboxamide] | 92 | 1.92 | 30.4 | – | – | – |
| Cc1ccc(-c2noc(C)c2COc2cnc(C(=O)N[C@H]3CC[C@@H](C(F)(F)F)CC3)cn2)cn1 [Example 102, 5-((5-methyl-3-(6-methylpyridin-3-yl)isoxazol-4-yl)methoxy)-N-(cis-4-(trifluoromethyl)cyclohexyl)pyrazine-2-carboxamide] | 21 | 1.21 | 20.7 | – | – | – |
| Cc1ccc(-c2noc(C)c2COc2ccc(C(=O)NC3CC(F)(F)C3)nn2)cn1 [Example 42, N-(3,3-difluorocyclobutyl)-6-((5-methyl-3-(6-methylpyridin-3-yl)isoxazol-4-yl)methoxy)pyridazine-3-carboxamide] | 81 | 1.81 | 8.9 | – | – | – |
| Cc1ccc(-c2noc(C)c2COc2ccc(C(=O)NCC3COC3)nn2)cn1 [Example 50, 6-((5-methyl-3-(6-methyl-3-pyridyl)isoxazol-4-yl)methoxy)-N-(oxetan-3-ylmethyl)pyridazine-3-carboxamide] | 72 | 1.72 | 7.6 | – | – | – |
| Cc1ccc(-c2noc(C)c2COc2ccc(C(=O)NCCO)nn2)cn1 [Example 29, N-(2-hydroxyethyl)-6-((5-methyl-3-(6-methylpyridin-3-yl)isoxazol-4-yl)methoxy)pyridazine-3-carboxamide] | 81 | 1.81 | 8 | – | – | – |
| Cc1ccc(-c2noc(C)c2COc2cc(C)c(C(=O)NC3CCOCC3)nn2)cn1 [Example 62, 4-methyl-6-((5-methyl-3-(6-methylpyridin-3-yl)isoxazol-4-yl)methoxy)-N-(tetrahydropyran-4-yl)pyridazine-3-carboxamide] | 42 | 1.42 | 20.8 | – | – | – |
| Cc1ccc(-c2noc(C)c2COc2ccc(C(=O)N3CC(F)(F)C3)nn2)cn1 [Example 47, (3,3-difluoroazetidin-1-yl)(6-((5-methyl-3-(6-methylpyridin-3-yl)isoxazol-4-yl)methoxy)pyridazin-3-yl)methanone] | 68 | 1.68 | 13 | – | – | – |
| Cc1ccc(-c2noc(C)c2COc2ccc(C(=O)N[C@H]3CCOC[C@@H]3O)cn2)cn1 [Example 127, N-((3R,4S)-3-hydroxytetrahydropyran-4-yl)-6-((5-methyl-3-(6-methyl-3-pyridyl)isoxazol-4-yl)methoxy)pyridine-3-carboxamide] | 50 | 1.5 | 22.8 | – | – | – |
| Cc1ccc(-c2noc(C)c2COc2ccc(C(=O)NC3CCOCC3)cn2)cn1 [Example 1, 6-((5-methyl-3-(6-methyl-3-pyridyl)isoxazol-4-yl)methoxy)-N-tetrahydropyran-4-yl-pyridine-3-carboxamide] | 42 | 1.42 | 4.8 | – | – | – |
| CC1(NC(=O)c2ccc(OCc3c(-c4ccc(Cl)nc4)noc3C3CC3)nn2)COC1 [Example 177] | 109 | 2.09 | 39.7 | – | – | – |
| Cc1ccc(-c2noc(C)c2COc2ccc(C(=O)N[C@@H]3CC[C@@H](OCC(F)F)C3)nn2)cn1 [Example 191, N-((1R,3R)-3-(2,2-difluoroethoxy)cyclopentyl)-6-((5-methyl-3-(6-methylpyridin-3-yl)isoxazol-4-yl)methoxy)pyridazine-3-carboxamide] | 60 | 1.6 | 11.2 | – | – | – |
| Cc1ccc(-c2noc(C)c2COc2cc3c(cn2)C(=O)N(C2CCC(F)(F)CC2)C3)cn1 [Example 96, 2-(4,4-difluorocyclohexyl)-6-((5-methyl-3-(6-methylpyridin-3-yl)isoxazol-4-yl)methoxy)-1H-pyrrolo[3,4-c]pyridin-3(2H)-one] | 88 | 1.88 | 7.2 | – | – | – |
| Cc1ccc(-c2noc(C)c2COc2ccc(C(=O)N[C@@H]3CC[C@@](O)(C(F)(F)F)C3)nn2)cn1 (single isomer, unassigned) [Example 149] | 37 | 1.37 | 5 | – | – | – |
| Cc1onc(-c2ccc(Cl)cn2)c1COc1ccc(C(=O)NC2CCOCC2)cn1 [RO-301, reference compound] | – | – | – | −18 | 0.82 | 0.2 |
| Cc1ccc(-c2noc(C)c2COc2cnc(C(=O)NC3CCOC3)cn2)cn1 (stereo in doubt) [Example 92, (S)-5-((5-Methyl-3-(6-methylpyridin-3-yl)isoxazol-4-yl)methoxy)-N-(tetrahydrofuran-3-yl)pyrazine-2-carboxamide] | 67 | 1.67 | 13.2 | – | – | – |
| Cc1ccc(-c2noc(C)c2COc2ccc(C(=O)NC3(C)CCCC3)nn2)cn1 [Example 114, 6-((5-methyl-3-(6-methylpyridin-3-yl)isoxazol-4-yl)methoxy)-N-(1-methylcyclopentyl)pyridazine-3-carboxamide] | 74 | 1.74 | 28.1 | – | – | – |
| COc1ccc(-c2noc(C)c2COc2ccc(C(=O)NC(C)C)cn2)cn1 [Example 138, N-isopropyl-6-((3-(6-methoxypyridin-3-yl)-5-methylisoxazol-4-yl)methoxy)pyridine-3-carboxamide] | 46 | 1.46 | 93.8 | – | – | – |
| Cc1ccc(-c2noc(C)c2COc2cnc(C(=O)NCCCC(F)(F)F)cn2)cn1 [Example 115, 5-((5-methyl-3-(6-methylpyridin-3-yl)isoxazol-4-yl)methoxy)-N-(4,4,4-trifluorobutyl)pyrazine-2-carboxamide] | 139 | 2.39 | 51.6 | – | – | – |
| COc1cc(OCc2c(-c3ccc(C)nc3)noc2C)ncc1C(=O)NC1CCOCC1 [Example 142, 4-methoxy-6-((5-methyl-3-(6-methylpyridin-3-yl)isoxazol-4-yl)methoxy)-N-(tetrahydropyran-4-yl)nicotinamide] | 44 | 1.44 | 4.7 | – | – | – |
| CCC[C@@H](CO)NC(=O)c1ccc(OCc2c(-c3ccc(OC)nc3)noc2C)nc1 [Example 139, (S)—N-(1-hydroxypentan-2-yl)-6-((3-(6-methoxypyridin-3-yl)-5-methylisoxazol-4-yl)methoxy)pyridine-3-carboxamide] | 152 | 2.52 | 19.4 | – | – | – |
